Test results as given in PubChem BioAssay (NCI).
“And” between values parts separate entries of the source, which are not always exact repeats. Equal values may be shown once.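 96-well plates; 48 h exposure; 5 concentrations. Endpoints by linear interpolation between flanking doses. Not reached: highest tested concentration assigned. GI50 is the concentration that inhibits growth by half. TGI: total growth inhibition.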

Legend:
Experiment in all cases: DTP human tumour cell line panel, 48 h
SK-MEL-5 melanoma = system: SK-MEL-5 melanoma
NCI-H460 lung = system: NCI-H460 lung
DU-145 prostate = system: DU-145 prostate
HCT-116 colon = system: HCT-116 colon
MCF7 breast = system: MCF7 breast
SF-268 CNS = system: SF-268 CNS
HOP-62 NSCLC = system: HOP-62 NSCLC
A549 NSCLC = system: A549 NSCLC
LOX IMVI melanoma = system: LOX IMVI melanoma
BT-549 breast = system: BT-549 breast

Row | Compound | GI50 (SK-MEL-5 melanoma) | TGI (SK-MEL-5 melanoma) | GI50 (NCI-H460 lung) | TGI (NCI-H460 lung) | GI50 (DU-145 prostate) | TGI (DU-145 prostate) | GI50 (HCT-116 colon) | TGI (HCT-116 colon) | GI50 (MCF7 breast) | TGI (MCF7 breast) | GI50 (SF-268 CNS) | TGI (SF-268 CNS) | GI50 (HOP-62 NSCLC) | TGI (HOP-62 NSCLC) | GI50 (A549 NSCLC) | TGI (A549 NSCLC) | GI50 (LOX IMVI melanoma) | TGI (LOX IMVI melanoma) | GI50 (BT-549 breast) | TGI (BT-549 breast)
1 | COc1ccc(-c2cn[nH]c2-c2cc(OC)c(OC)c(OC)c2)cc1 | 0.0243 µM | 0.226 µM | 0.0351 µM | 10.5 µM | 0.0392 µM | 2.67 µM | 34.2 nM | 11.4 µM | 28.4 nM | 16.8 µM | 0.0795 µM | 31.5 µM | 0.0352 µM | 33.7 µM | 0.0346 µM | > 38.7 µM | 0.123 µM | 20.7 µM | – | –
2 | N#C/C(=C\c1cccc(Cl)c1Cl)c1ccccc1 | – | > 100 µM | – | > 100 µM | – | – | – | > 67.5 µM | – | – | – | > 100 µM | – | 60.9 µM | – | > 100 µM | – | > 100 µM | – | –
3 | COC(=O)CC(c1ccccc1)C1(c2ccccc2)SCCS1 (configuration not stated) | – | > 290 µM | – | > 290 µM | – | – | – | > 290 µM | – | – | – | > 290 µM | – | > 290 µM | – | > 290 µM | – | > 290 µM | – | –
4 | COc1ccc(OC)c(N2CC(N)C2=O)c1 (configuration not stated) | – | > 100 µM | – | > 100 µM | – | – | – | > 100 µM | – | – | – | > 100 µM | – | > 100 µM | – | > 100 µM | – | > 100 µM | – | –
5 | COc1ccc(C)cc1-c1cc(Sc2ccccc2)c(-c2cc(C)ccc2OC)o1 | – | > 31.6 µM | – | > 31.6 µM | – | – | – | > 31.6 µM | – | – | – | > 31.6 µM | – | > 31.6 µM | – | > 31.6 µM | – | > 100 µM | – | –
6 | Cc1ccc(Oc2ccc(C)cc2N)cc1 | – | > 100 µM | – | > 100 µM | – | – | – | > 100 µM | – | – | – | > 100 µM | – | > 100 µM | – | > 100 µM | – | > 100 µM | – | –
7 | CCCCCCCCCCCCCCCC[N+](C)(C)Cc1ccccc1 | 1.33 µM | 2.62 µM | – | – | 1.7 µM and 1.62 µM | 3.22 µM and 3.12 µM | – | – | – | – | – | – | – | – | – | – | – | – | – | –
8 | CCc1c(OC(C)=O)c2c(NC3OCC(OC(C)=O)C(OC(C)=O)C3OC(C)=O)nc(SC)nc2oc1=O (configuration not stated) | – | > 100 µM | – | > 100 µM | – | – | – | > 100 µM | – | – | – | – | – | > 100 µM | – | > 100 µM | – | > 100 µM | – | –
9 | Nc1c(C(=O)Nc2cccc(C(F)(F)F)c2)sc2nc3c(cc12)CCCCC3 | 1.18 µM | 12 µM | 2.61 µM | 11.4 µM | 4.81 µM | 28.4 µM | 1620 nM | 4.18 µM | 2350 nM | 13.6 µM | 2.99 µM | 16.2 µM | – | – | 2.25 µM | 11 µM | 3.59 µM | 58 µM | 1.7 µM | 6.33 µM
10 | CC(=O)NNc1nc(C)c(C(=O)/C=C/c2ccc(NC(C)=O)cc2)s1 | – | > 100 µM | – | > 100 µM | – | – | – | – | – | – | – | > 100 µM | – | > 100 µM | – | > 100 µM | – | > 100 µM | – | –
11 | O=C(Oc1ccc(Cl)cc1)c1ccccc1Nc1ccnc(C(F)(F)F)c1 | 16.8 µM | 36.2 µM | 10.5 µM | 35.4 µM | 18.7 µM | 39.8 µM | – | – | 3730 nM | 14.7 µM | 4.32 µM | 17.4 µM | – | – | 15.3 µM | 52.3 µM | – | – | 14.9 µM | 41.2 µM
12 | O=S(=O)(N/N=C/c1cccc(/C=N/NS(=O)(=O)c2ccccc2)c1)c1ccccc1 | – | > 100 µM | – | > 100 µM | – | – | – | > 100 µM | – | – | – | > 100 µM | – | > 100 µM | – | > 100 µM | – | > 100 µM | – | –
13 | O=c1ccc2ccccc2cc1[O-].O=c1ccc2ccccc2cc1[O-].[O]=[U+2]=[O] | 4.99 µM | 29.4 µM | 13.6 µM | > 100 µM | – | – | – | – | – | – | 22.2 µM | 51.8 µM | 23.9 µM | 53.8 µM | 4.78 µM | 56 µM | 14.1 µM | > 100 µM | – | –
14 | CC(C)(C)c1cc2c(O)c3cccc4c(=O)c5cccc6c5-c(c34)c2c(c1)c6=O | – | – | – | > 100 µM | – | – | – | > 100 µM | – | – | – | > 100 µM | – | > 100 µM | – | > 100 µM | – | > 100 µM | – | –
15 | Cc1ccc(-n2c3nc(=O)[nH]c(=O)c-3cc3cc([N+](=O)[O-])ccc32)cc1 | 16 µM | 36.8 µM | 17.1 µM | > 100 µM | 22.9 µM | 55.1 µM | 5260 nM | 21 µM | – | – | 17.3 µM | 54.8 µM | 2.57 µM | 11.8 µM | 44.6 µM | > 100 µM | 4.77 µM | 21.5 µM | 6.49 µM | 27.8 µM
16 | O=C(/C(=C/c1ccc([N+](=O)[O-])cc1)SCc1ccccc1)c1ccc(Cl)cc1 | 3.41 µM | 12.4 µM | 5.34 µM | 20.3 µM | 3.6 µM | 13.8 µM | – | – | – | – | 3.09 µM | 13.1 µM | 4.52 µM | 17.7 µM | 15.1 µM | 32.2 µM | 1.69 µM | 3.12 µM | 2.4 µM | 6.39 µM
17 | CCOC(=O)C1=C(C(=O)OCC)C2c3ccccc3C=CN2C(C(=O)OCC)=C(SC)S1 (configuration not stated) | – | > 100 µM | – | > 100 µM | – | – | – | > 100 µM | – | – | – | > 100 µM | – | > 100 µM | – | > 100 µM | – | > 100 µM | – | –
18 | O=C1CCC2(c3ccc(Cl)cc3)Nc3ccncc3N12 (configuration not stated) | – | – | – | > 10 µM | – | > 10 µM | – | > 10 µM | – | – | – | > 10 µM | – | – | – | > 10 µM | – | > 10 µM | – | > 10 µM
19 | COc1nc(NC2OC(COC(C)=O)C(OC(C)=O)C(OC(C)=O)C2OC(C)=O)c2c(OC(C)=O)cc(=O)oc2n1 (configuration not stated) | – | > 100 µM | – | 34.1 µM | – | – | – | > 100 µM | – | – | – | – | – | > 100 µM | – | > 100 µM | – | > 100 µM | – | –
20 | Cc1ccc(/C=C/C(=O)CCN(C)C)cc1 | – | 34.4 µM | – | 65.6 µM | – | – | – | 33.1 µM | – | – | – | 47.5 µM | – | > 100 µM | – | 38.4 µM | – | 31.6 µM | – | –
21 | CN(C)CCn1c2c3ccccc3ccc2c2oc(=O)c3ccccc3c21 | – | – | – | 13.4 µM | – | – | – | 29.1 µM | – | – | – | 7.86 µM | – | 28.3 µM | – | 15.3 µM | – | 27.7 µM | – | –
22 | COC(=O)C(CCCN1C(=O)c2ccccc2C1=O)C(=O)OC | – | > 100 µM | – | > 100 µM | – | – | – | > 100 µM | – | – | – | > 100 µM | – | > 100 µM | – | > 100 µM | – | > 100 µM | – | –
23 | CCCCN(CCCC)C(=O)C(=O)C(C(=O)c1ccc(OC)cc1)c1ccc(OC)cc1 (configuration not stated) | – | > 100 µM | – | > 100 µM | – | – | – | > 100 µM | – | – | – | > 100 µM | – | > 100 µM | – | > 100 µM | – | > 100 µM | – | –
